Measured values as given in patent US20050233313A1, “Methods and reagents for identifying inhibitors of viral protease activity” (priority 2002, published 2005).

Test system: β-galactosidase substrate with HIV protease cleavage site
Experiment: cleavage of a β-galactosidase substrate by processed PR expressed from pMono in E. coli, Western blot
Format: cell-based
Details: single alanine substitutions in processed monomeric PR; full-length β-galactosidase cleavage, average of two or more inductions
Description: Plasmid pMono expresses wild-type or mutated monomeric protease from the tac promoter (Amann et al. (1983) Gene 25:167-178) in Escherichia coli and was derived from plasmid P1+IQ (Baum et al. (1990) Proc. Natl. Acad. Sci. USA 87:10023-10027). Protease sequences in P1+1Q were replaced by a linker of 5′ XhoI-XbaI-SalI-PstI 3′ to produce p1CVx. Wild-type or mutated protease sequences were obtained from pET-PR by PCR with primers 5′Xho (AATATA-CTCGAG-[…], SEQ ID NO: 1) and 3′Xba (ATAAAT-TCTAGA-[…], SEQ ID NO: 2) and were inserted into p1CVx to produce pMono. The phagemid pET-PR contains the 99-residue coding domain of the monomeric protease (HXB2 isolate [Ratner et al. (1987) AIDS Res. Hum. Retrovir. 3:57-69]) inserted into the NdeI-BamHI sites of pET24a (Novagen). The Kunkel method using single-stranded templates of pET-PR substituted with uracil was employed for site-directed mutagenesis (Bebenek and Kunkel (1989) Nucleic Acids Res. 17:5408, Kunkel et al. (1991) Methods Enzymol204:125-139). Mutations were confirmed by DNA sequencing prior to transfer of the protease sequences into p1CVx.
Uninduced mid-log-phase (optical density at 600 nm=0.5) cultures of lac-E. coli strain MC1061 carrying pMono were grown in yeast-tryptone medium to produce samples for Western blot analysis. Cells were pelleted, resuspended in 400 μl of sodium dodecyl sulfate (SDS)-polyacrylamide gel electrophoresis (PAGE) sample buffer (Pettit et al. (1991) J. Biol. Chem. 266:14539-14547) (optical density at 600 nm=˜0.5), and heated to 95° C. for 4 min. SDS-PAGE was performed on Tris-glycine gels (7.5% polyacrylamide) (Laemmli (1970) Nature […]). Separated proteins were bound to nitrocellulose by electrotransfer, blocked for 1 h with 3% bovine serum albumin in Tris-buffered saline-0.1% Tween 20, and probed with anti-β-galactosidase monoclonal antibody (Boehringer) at a 1:5,000 dilution. Following multiple washes in Tris-buffered saline-0.1% Tween 20, β-galactosidase was detected with the ECL Plus system followed by autoradiography according to the instructions of the manufacturer (Amersham Pharmacia). The extent of β-galactosidase cleavage was determined by densitometric measurement on a Molecular Dynamics Storm model 800 Phosphorlmager. For scanning, the Phosphorlmager was set in the blue fluorescence and chemifluorescence mode with a photomultiplier tube voltage of 700 V. The final value for percent cleavage of the β-galactosidase substrate was determined by taking the average of two or more independent inductions.
For these studies, we modified an E. coli expression system developed as described in Baum et al. (1990) Proc. Natl. Acad. Sci. USA 87:10023-10027. The vector (pMono) expresses HIV protease and the β-galactosidase gene. A cleavage cassette consisting of a decapeptide corresponding to an HIV protease cleavage site was inserted into the β-galactosidase open reading frame. In this system, enzyme activity may be assessed via Western blotting as the percent cleavage of full-length β-galactosidase.

Substance | % Cleavage
T4A: processed HIV-1 protease with single alanine substitution of dimer interface residue Thr 4 | 96%
F99A: processed HIV-1 protease with single alanine substitution of dimer interface residue Phe 99 | 0%
D25A: processed HIV-1 protease with replacement of the catalytic aspartate, negative control | 0%
T96A: processed HIV-1 protease with single alanine substitution of dimer interface residue Thr 96 | 14%
N98A: processed HIV-1 protease with single alanine substitution of dimer interface residue Asn 98 | 68%
Q2A: processed HIV-1 protease with single alanine substitution of dimer interface residue Gln 2 | 96%
P1A: processed HIV-1 protease with single alanine substitution of dimer interface residue Pro 1 | 92%
L97A: processed HIV-1 protease with single alanine substitution of dimer interface residue Leu 97 | 0%
Wild type: wild-type mature 99-residue monomeric HIV-1 protease (HXB2) expressed from pMono | 96%
